Experimental data published in US20120238767A1, “ANTIOXIDANT INFLAMMATION MODULATORS: NOVEL DERIVATIVES OF OLEANOLIC ACID” (priority 2008, published 2012).
Converted amounts (≈) assume the structure as drawn.

How the values were obtained:
[1] = Aqueous solubility determination (Millipore Multiscreen solubility filter plate, UV/vis); format: physicochemical; details: kinetic from dmso stock; Universal Aqueous Buffer pH 7.4, 90 minutes at room temperature
Method: Aqueous Solubility Determination. The following procedure was used to obtain the aqueous solubility results summarized in Example 4. Step 1. Determination of optimal UV/vis wavelengths and generation of standard curves for a compound of interest: • (1) For eight standard calibration curves (one plate), prepare 34 mL of 50:50 (v:v) universal buffer:acetonitrile in a 50 mL tube. • (2) Using a multichannel pipet, dispense (in μL) the buffer:acetonitrile in a deep well plate as follows:
• (3) Using a multichannel pipet, dispense DMSO into the same plate as follows:
• (4) Add 10 mM compound in DMSO into the plates as follows:
• (5) Mix columns 1 and 2 by pipetting each up and down 10 times. Mix columns 3 and 4 by pipetting up and down 10 times. Serially dilute as follows (pipet up and down 10 times after each transfer):
• (6) Cover plate with lid and shake (200-300 rpm) at room temperature for 20 minutes. • (7) Mix all wells by pipetting up and down 10 times. • (8) Transfer 120 μL from each well to a UV transparent plate. Cover and shake for 3-5 minutes. Remove any bubbles in the wells using a pipet. • (9) Read from 220 nm to 500 nm at 10 nm increments on a spectrophotometer (e.g., SpectraMax®).
Step 2. Compound Solubility Testing Procedures using the Millipore™ Multiscreen® Solubility Filter Plate. […]
Solubility Protocol: • (a) Add 285 μL of Universal Aqueous Buffer to desired wells of the Millipore™ Multiscreen® Solubility filter plate. • (b) Add 15 μL of 10 mM compound in DMSO to the appropriate wells. […] Remove any bubbles with a pipet. • (i) Measure the absorbance of each well in the plate on the spectrophotometer (UV/vis) at the desired wavelength. For compounds in a plate with different absorbance peaks, set the spectrophotometer to read a spectrum (e.g., from 220 nm to 460 nm). • (j) Identify concentration using measured absorbance for each compound and the predetermined standard curve (see Step 1).

RAW264.7 macrophages = assay: Cell viability (WST-1 reagent); format: cell-based, mouse; details: Mus musculus, RAW264.7, 20 ng/ml IFNγ
Method: (§1) FIGS. 1-11 and 22. Inhibition of NO Production. RAW264.7 macrophages were pre-treated with DMSO or drugs at various concentrations (nM) for 2 hours, then treated with 20 ng/ml IFNγ for 24 hours. NO concentration in media was determined using a Griess reagent system; cell viability was determined using WST-1 reagent. Nitric Oxide production and cell viability. RAW264.7 macrophages were pre-treated with DMSO or drugs for 2 hours, then treated with recombinant mouse IFNγ (Sigma) for 24 hours. NO concentration in media was determined using the Griess reagent system (Promega). Cell viability was determined using WST-1 reagent (Roche).

[2] = test system: IFNγ-induced NO production in RAW264.7 macrophages; assay: Suppression of IFNγ-induced NO production (Griess reagent); format: cell-based, mouse; details: Mus musculus; RAW264.7, 20 ng/ml IFNγ for 24 hours, 2 hours pre-treatment
Method: as §1

Row | SMILES | solubility at 90 min [1] [µM] | IC50 (RAW264.7 macrophages) [nM] | IC50 [2] [nM]
1 | CC1(C)CC[C@]2(N)CC[C@]3(C)[C@H](C(=O)C=C4[C@@]5(C)C=C(C#N)C(=O)C(C)(C)[C@@H]5CC[C@]43C)[C@@H]2C1 [Compound 63198] | 164 (≈ 75.7 µg/mL) | – | –
2 | COC(=O)[C@]12CCC(C)(C)C[C@H]1[C@H]1C(=O)C[C@@H]3[C@@]4(C)C=C(C#N)C(=O)C(C)(C)[C@@H]4CC[C@@]3(C)[C@]1(C)CC2 [Compound 63219] | 13.6 (≈ 6.89 µg/mL) | – | –
3 | CC1(C)CC[C@]2(C(=O)NCC(F)(F)F)CC[C@]3(C)[C@H](C(=O)C=C4[C@@]5(C)C=C(C#N)C(=O)C(C)(C)[C@@H]5CC[C@]43C)[C@@H]2C1 [Compound 63102, reference compound] | 0.06 (≈ 0.0344 µg/mL) | – | –
4 | COC(=O)[C@]12CCC(C)(C)C[C@H]1[C@H]1C(=O)C=C3[C@@]4(C)C=C(C(=O)NO)C(=O)C(C)(C)[C@@H]4CC[C@@]3(C)[C@]1(C)CC2 [Compound 402-07, (4aS,6aR,6bS,8aR,12aS,14aR,14b5)-methyl-11-(hydroxycarbamoyl)-2,2,6a,6b,9,9,12a-heptamethyl-10,14-dioxo-1,2,3,4,4a,5,6,6a,6b,7,8,8a,9,10,12a,14,14a,14b-octadecahydropicene-4a-carboxylate] | – | > 200 | > 200
5 | COC(=O)[C@]12CCC(C)(C)C[C@H]1[C@H]1C(=O)C=C3[C@@]4(C)C=C(C(=O)NS(C)(=O)=O)C(=O)C(C)(C)[C@@H]4CC[C@@]3(C)[C@]1(C)CC2 [Compound 402-08, (4aS,6aR,6bS,8aR,12aS,14aR,14bS)-methyl-2,2,6a,6b,9,9,12a-heptamethyl-11-(methylsulfonylcarbamoyl)-10,14-dioxo-1,2,3,4,4a,5,6,6a,6b,7,8,8a,9,10,12a,14,14a,14b-octadecahydropicene-4a-carboxylate] | – | > 200 | 62
6 | CC1(C)CC[C@]2(C(=O)NCCO)CC[C@]3(C)[C@H](C(=O)C=C4[C@@]5(C)C=C(C#N)C(=O)C(C)(C)[C@@H]5CC[C@]43C)[C@@H]2C1 [Compound 402-40, (4aS,6aR,6bS,8aR,12aS,14aR,14bS)-11-cyano-N-(2-hydroxyethyl)-2,2,6a,6b,9,9,12a-heptamethyl-10,14-dioxo-1,2,3,4,4a,5,6,6a,6b,7,8,8a,9,10,12a,14,14a,14b-octadecahydropicene-4a-carboxamide] | – | 75 | 17
